{"source": "patent US20250241890A1", "about": "“1,4-DIUREAS AND 1,4-DITHIOUREAS AND USES THEREOF” (Purdue Research Foundation, priority 2024, published 2025)", "test_system": "M17D-TR/αS-3K::YFP cells", "test": "α-Syn inclusion-forming neuroblastoma cell experiment (Incucyte)", "type": "cell-based", "settings": "M17D αS-3K::YFP cells; for cell confluence: relative to DMSO vehicle", "experimental": "FIG. 11. Compound 1 prevents αS inclusion formation. M17D cells expressing the inclusion-prone αS-3K::YFP fusion protein (dox-inducible) were treated with 0.1% DMSO (vehicle; “0 μM”) as well as 1.25, 2.5, 5 and 10 μM of compounds 1, 2 and 8 at t=24 hours after plating. Cells were induced with doxycycline at t=48 hours. A) Incucyte-based analysis of punctate YFP signals relative to 0.1% DMSO was done at t=96 hours (N=3 independent experiments, n=6-18 individual wells total (0 μM, n=18; 10 μM, n=6; all other concentrations, n=12). B) Same as panel A, but confluence fold changes relative to DMSO vehicle (0 μM) were plotted. C) Representative IncuCyte images of reporter cells treated with vehicle vs. 10 μM compounds 1, 2, or 8 (t=96 h), green channel. Arrows indicate αS-rich YFP-positive inclusions. Scale bar, 50 μm. All data are presented as fold-changes relative to DMSO control +/−standard deviation. One-way ANOVA, Dunnett's post-hoc test; *, p<0.05; **, p<0.01; ***, p<0.001.\nChemical and peptide source. Dimethylsulfoxide (DMSO) and thioflavin-T (ThT) were purchased from Alfa Aesar (Ward Hill, MA). Recombinant α-synuclein (α-syn) was procured from rPeptide (WatKinsville, GA). The recombinant p-tau isoform 1N4R was prepared as published previously (Fortin et al. 2021, Sui et al. 2015, Liu et al. 2020). Concerning the preparation of tau 0N4R, a bacterial expression plasmid consisting of the vector pET30a carrying a cDNA encoding the human Tau 0N4R isoform was a kind gift of Dr. Benjamin Wolozin (Boston University). E. coli stock (Rosetta BL21 E. coli (CamR) containing pET30a [0N4R tau wt] (KanR)) was grown in LB medium supplemented with kanamycin (50 μg/mL) and chloramphenicol (50 μg/mL). Protein over-expression was induced by the addition of 1 mM IPTG for ˜18 hours at 37° C., and cells were pelleted by centrifugation at 6,000 g for 15 minutes at 4° C. The cells were resuspended in lysis buffer (10 mM Hepes, pH 7.4, 50 mM NaCl, 1 mM MgCl2, 1 mM PMSF, 1× PIC, and 0.5 mM DTT) and lysed by sonication at 30 seconds “On” and 1 minute “Off” at ˜30-45% power for ˜3-5 minutes. Lysate was centrifuged at 10,000 rpm for 10 minutes at 4° C., and supernatant was transferred with 7.8 ml (total) of 3M NaCl. The lysate was incubated for 10 minutes in 80° C. water bath, then cooled for 10 minutes in an ice bath. The lysate was centrifuged at 10,000 rpm at 4° C. for 10 minutes, and the supernatant was transferred to a new tube. The supernatant was dialyzed overnight against cation exchange buffer (50 mM MES, […], 1 mM DTT, pH 6.0). The dialysate was loaded onto a HiPrep SP HP column, and proteins were eluted with a linear gradient ranging from 50 mM to 1 M NaCl. General Characterizations. ^1H and ^13C {1H} NMR spectra were recorded using a 500 MHz Bruker instrument working at a frequency of 500 MHz for ^1H and at 126 MHz for ^13C. Chemical shifts are reported in ppm using residual solvent resonances as internal reference (δ 2.50 and δ 39.51 for ^1H and ^13C in DMSO-d6, respectively). ^1H NMR data are reported as follows. b=broad, s=singlet, d=doublet, t=triplet, q=quartet, and m=multiplet. Coupling constants are given in hertz. The purity of all compounds and synthetic intermediates was judged to be 95% or better based on ^1H NMR. […] Thioflavin fluorescence assays. Thioflavin fluorescence assays were used to monitor fibril formation of commercial recombinant α-syn at a final concentration of 2 μM and treated with control DMSO and different compounds. […]", "data": [{"smiles": "O=C(Nc1ccc(NC(=O)Nc2cccc3[nH]ccc23)cc1)Nc1cccc2[nH]ccc12", "note": "[Compound 1, 3-(1H-indol-4-yl)-1-(4-{[(1H-indol-4-yl)carbamoyl]amino}phenyl)urea]", "values": [{"measurement": "cell confluence", "setting": "1.25 to 10 μM", "value": "did not exhibit changes in the cell confluence"}]}, {"smiles": "S=C(Nc1ccc(NC(=S)Nc2cccc3[nH]ccc23)cc1)Nc1cccc2[nH]ccc12", "note": "[Compound 2, 3-(1H-indol-4-yl)-1-(4-{[(1H-indol-4-yl)carbamothioyl]amino}phenyl)thiourea]", "values": [{"measurement": "cell confluence", "setting": "1.25 to 10 μM", "value": "did not exhibit changes in the cell confluence"}, {"measurement": "α-syn inclusion formation (punctate YFP signals relative to DMSO)", "setting": "5 and 10 μM, t=96 hours", "value": "increased the inclusions"}]}, {"smiles": "S=C(Nc1ccc(NC(=S)Nc2cccc3cc[nH]c23)cc1)Nc1cccc2cc[nH]c12", "note": "[Compound 8, 3-(1H-indol-7-yl)-1-(4-{[(1H-indol-7-yl)carbamothioyl]amino}phenyl)thiourea]", "values": [{"measurement": "cell confluence", "setting": "1.25 to 10 μM", "value": "did not exhibit changes in the cell confluence"}, {"measurement": "numbers of α-syn inclusions", "setting": "1.25 to 10 μM, t=96 hours", "value": "very minimal changes in the numbers of inclusions"}]}]}
